Source: patent US20090117563A1, “Identification of TRPML3 (MCOLN3) as a Salty Taste Receptor and Use in Assays for Identifying Taste (Salty) Modulators and/or Therapeutics that Modulate Sodium Transport, Absorption or Excretion and/or Aldosterone and/or Vasopressin Production or Release” (priority 2007, published 2009)

Target: T1, A419P TRPML3 (Homo sapiens, UniProt Q8TDD5, A419P)
T1 construct: expressed in transfected cells
T1 sequence (Q8TDD5 1-553 A419P): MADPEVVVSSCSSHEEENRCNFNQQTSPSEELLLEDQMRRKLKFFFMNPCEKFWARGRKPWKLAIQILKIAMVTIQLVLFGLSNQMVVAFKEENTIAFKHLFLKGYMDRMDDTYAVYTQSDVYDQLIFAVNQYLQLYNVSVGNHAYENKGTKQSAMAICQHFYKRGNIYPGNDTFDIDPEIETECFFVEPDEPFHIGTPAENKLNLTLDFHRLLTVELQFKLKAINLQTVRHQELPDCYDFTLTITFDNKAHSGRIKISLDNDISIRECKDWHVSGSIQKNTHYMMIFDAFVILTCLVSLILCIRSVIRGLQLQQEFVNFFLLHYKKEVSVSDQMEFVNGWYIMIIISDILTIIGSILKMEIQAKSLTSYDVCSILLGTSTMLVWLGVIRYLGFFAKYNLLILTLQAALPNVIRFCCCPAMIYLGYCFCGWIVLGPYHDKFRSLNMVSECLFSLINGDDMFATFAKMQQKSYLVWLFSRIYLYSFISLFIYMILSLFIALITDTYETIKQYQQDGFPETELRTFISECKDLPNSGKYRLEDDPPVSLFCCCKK
Assay: Whole cell voltage clamp, A419P TRPML3 stably expressed in CHO cells
Assay type: cell-based
Settings: 1 mM GdCl3 compared to buffer alone
Description: The whole cell voltage clamp technique is an electrophysiology method that measures the macroscopic electrical current flowing across the entire plasma membrane though protein channels. Live mammalian cells are placed in a special microscope chamber containing extracellular solution. Guided by a micromanipulator and under visual control, a small diameter glass pipette filled with an electrically conductive salt solution is first attached to the cell membrane using gentle negative pressure resulting in a high resistance gigaOhm seal. The membrane patch within the pipette is disrupted using further suction resulting in the whole cell patch clamp configuration. The whole cell patch clamp configuration allows the combined measurement of all ion channels proteins within the membrane or macroscopic current. Using the patch clamp amplifier in combination with the whole-cell patch clamp configuration allows the operator to control the voltage, or potential difference across the entire cell membrane, as well as the both the internal and external ionic composition of the cell. […]

Q: Which results are given for [Cl][Gd]([Cl])[Cl] [gadolinium, gadolinium chloride]?
A: effect on inward current (listed as Gadolinium chloride): blocked; effect on inward current (listed as GdCl3): decrease in inward current
